From US9568466B2, “In vitro assay for predicting renal proximal tubular cell toxicity” (priority 2012, dated 2017)

Key:
renal proximal tubule = details: in vivo; cited from earlier work
[1] = test system: human primary renal proximal tubular cells (HPTC); test: HPTC exposed to test compound, nuclear staining and F-actin detection, morphology and cell numbers; details: HPTC isolated from fresh human kidney samples; 0.2 mg/ml; 16 hours

Compound	nephrotoxicity in humans / direct damage of the renal proximal tubule (renal proximal tubule)	cell numbers (number of cell nuclei) [1]	morphological changes (F-actin) [1]
O=P1(NCCCl)OCCCN1CCCl (stereo not shown) [Compound 9, Ifosfamide]	nephrotoxic in humans and damage directly the renal proximal tubule		
CC1=C2C(=CO[C@H](C)[C@H]2C)C(O)=C(C(=O)O)C1=O [Compound 21, Citrinin]	nephrotoxic in humans and damage directly the renal proximal tubule		
C=CC[C@@H]1/C=C(\C)C[C@H](C)C[C@H](OC)[C@H]2O[C@@](O)(C(=O)C(=O)N3CCCC[C@H]3C(=O)O[C@H](/C(C)=C/[C@@H]3CC[C@@H](O)[C@H](OC)C3)[C@H](C)[C@@H](O)CC1=O)[C@H](C)C[C@@H]2OC [Compound 19, Tacrolimus]	nephrotoxic in humans and damage directly the renal proximal tubule		
COc1ccc(C[C@H](N)C(=O)N[C@H]2[C@@H](O)[C@H](n3cnc4c(N(C)C)ncnc43)O[C@@H]2CO)cc1 [Compound 5, Puromycin]	nephrotoxic in humans and damage directly the renal proximal tubule		
CO[C@H]1/C=C/O[C@@]2(C)Oc3c(C)c(O)c4c(O)c(c(/C=N/N5CCN(C)CC5)c(O)c4c3C2=O)NC(=O)/C(C)=C\C=C\[C@H](C)[C@H](O)[C@@H](C)[C@@H](O)[C@@H](C)[C@H](OC(C)=O)[C@@H]1C [Compound 3, Rifampicin]	nephrotoxic in humans and damage directly the renal proximal tubule		
[Cl][Au] [Compound 16, Gold(I) chloride]	nephrotoxic in humans and damage directly the renal proximal tubule		
N[C@@H](Cc1ccc(O)c(O)c1)C(=O)O [Compound 38, Levodopa (DOPA)]	non-nephrotoxic in humans		
Gentamicin	nephrotoxic in humans and damage directly the renal proximal tubule	decrease in cell numbers	morphological changes
CC(C)[C@H](N)C(=O)OCCOCn1cnc2c(=O)[nH]c(N)nc21 [Compound 31, Valacyclovir]	nephrotoxic in humans, but do not damage directly the renal proximal tubule		
Cl[C@H]1[C@H](Cl)[C@@H](Cl)[C@@H](Cl)[C@H](Cl)[C@H]1Cl [Compound 29, Lindane]	nephrotoxic in humans, but do not damage directly the renal proximal tubule		
C[n+]1ccc(-c2cc[n+](C)cc2)cc1 [Compound 10, Paraquat]	nephrotoxic in humans and damage directly the renal proximal tubule		
N[C@@H](Cc1cc(I)c(Oc2ccc(O)c(I)c2)c(I)c1)C(=O)O [Compound 39, Triiodothyronine]	non-nephrotoxic in humans		
CC(=O)OCC1=C(C(=O)O)N2C(=O)[C@@H](NC(=O)CCC[C@@H](N)C(=O)O)[C@H]2SC1 [Compound 6, Cephalosporin C]	nephrotoxic in humans and damage directly the renal proximal tubule		
OCCO [Compound 30, Ethylene glycol]	nephrotoxic in humans, but do not damage directly the renal proximal tubule		
O=c1[nH]cc(F)c(=O)[nH]1 [Compound 7, 5-Fluorouracil]	nephrotoxic in humans and damage directly the renal proximal tubule		
[Cl-].[Li+] [Compound 28, Lithium chloride]	nephrotoxic in humans, but do not damage directly the renal proximal tubule		
NC[C@H]1O[C@H](O[C@H]2[C@H](O)[C@@H](O[C@H]3O[C@H](CO)[C@@H](O)[C@H](N)[C@H]3O)[C@H](N)C[C@@H]2N)[C@H](N)C[C@@H]1O [Compound 2, Tobramycin]	nephrotoxic in humans and damage directly the renal proximal tubule		
COc1ccc2[nH]cc(CCNC(C)=O)c2c1 [Compound 37, Melatonin]	non-nephrotoxic in humans		
[Ge+4].[O-2].[O-2] [Compound 15, Germanium(IV) oxide]	nephrotoxic in humans and damage directly the renal proximal tubule		
C[C@@H]1C[C@H]2[C@@H]3CCC4=CC(=O)C=C[C@]4(C)[C@@]3(F)[C@@H](O)C[C@]2(C)[C@@]1(O)C(=O)CO [Compound 36, Dexamethasone]	non-nephrotoxic in humans		
CCOc1ccc(NC(C)=O)cc1 [Compound 24, Phenacetin]	nephrotoxic in humans, but do not damage directly the renal proximal tubule		
NCC(=O)O [Compound 35, Glycine]	non-nephrotoxic in humans		
CCC[C@@H]1C[C@@H](C(=O)N[C@@H]([C@H]2O[C@H](SC)[C@H](O)[C@@H](O)[C@H]2O)[C@@H](C)O)N(C)C1 [Compound 32, Lincomycin]	nephrotoxic in humans, but do not damage directly the renal proximal tubule		
